From article PMC11866022, “Long-Chain Cyclic Arylguanidines as Multifunctional Serotonin Receptor Ligands with Antiproliferative Activity” (ACS Omega, 2025)
Several values for one entry are separate records, joined by “and”; a condition that tells them apart may be missing. Equal values may be shown once.

Assays:
D2 = biological target: T1, D2 (Homo sapiens, UniProt P14416); test: Radioligand binding assay, D2 ([3H]-raclopride); conditions: Table 3, unit inferred; 2.5 nM [3H]-raclopride
T1 construct: expressed in transfected cells; host or cells: HEK293
T1 sequence (P14416 whole entry): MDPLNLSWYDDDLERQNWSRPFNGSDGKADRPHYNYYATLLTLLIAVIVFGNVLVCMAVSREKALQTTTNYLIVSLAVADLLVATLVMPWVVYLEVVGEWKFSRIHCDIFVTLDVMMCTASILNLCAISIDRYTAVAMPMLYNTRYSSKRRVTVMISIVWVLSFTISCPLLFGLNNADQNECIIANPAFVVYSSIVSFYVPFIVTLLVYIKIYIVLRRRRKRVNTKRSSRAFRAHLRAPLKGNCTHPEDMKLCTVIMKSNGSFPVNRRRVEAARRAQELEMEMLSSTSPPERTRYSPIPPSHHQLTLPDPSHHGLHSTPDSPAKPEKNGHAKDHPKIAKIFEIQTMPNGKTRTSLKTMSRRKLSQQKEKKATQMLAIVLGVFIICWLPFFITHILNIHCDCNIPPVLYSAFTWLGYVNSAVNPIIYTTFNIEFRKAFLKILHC
Method: (§1) Their functional activity was also evaluated by assessing their ability to inhibit agonist-induced cAMP production in HEK293 cells (Table 3). Extended radioisotope tests were aimed at detecting potential affinity for other aminergic receptors, whose role in cancer treatment may be important. Functions were tested for all receptors. The essence of functional tests results from the fact that serotonin stimulates tumor progression. Therefore, the ligand should have the potential to reduce its concentration, i.e., act as an antagonist.[39]
(§2) The detailed procedure is presented in previous publications.[53] Assays were performed by incubating for 1 h at 37 °C (room temperature for 5-HT1A) in 200 μL volumes on 96-well plates. The reaction was terminated by rapid filtration using Unifilter plates, and radioactivity on the filters was measured with a PerkinElmer Microbeta plate reader. Radioligands used were:
D2: 2.5 nM [^3H]-raclopride
(§3) Eight concentrations (10^–4 to 10^–11 M) were tested in triplicate for each compound. Inhibition constants (Ki) were calculated using the Cheng–Prusoff equation.[54] The results are expressed as the means of at least two independent experiments.

5-HT1A = biological target: T2, 5-HT1A (Homo sapiens, UniProt P08908); test: Radioligand binding assay, 5-HT1A ([3H]-8-OHDPAT); conditions: Table 3, unit inferred; 2.5 nM [3H]-8-OHDPAT
T2 construct: expressed in transfected cells; host or cells: HEK293
T2 sequence (P08908 1-422): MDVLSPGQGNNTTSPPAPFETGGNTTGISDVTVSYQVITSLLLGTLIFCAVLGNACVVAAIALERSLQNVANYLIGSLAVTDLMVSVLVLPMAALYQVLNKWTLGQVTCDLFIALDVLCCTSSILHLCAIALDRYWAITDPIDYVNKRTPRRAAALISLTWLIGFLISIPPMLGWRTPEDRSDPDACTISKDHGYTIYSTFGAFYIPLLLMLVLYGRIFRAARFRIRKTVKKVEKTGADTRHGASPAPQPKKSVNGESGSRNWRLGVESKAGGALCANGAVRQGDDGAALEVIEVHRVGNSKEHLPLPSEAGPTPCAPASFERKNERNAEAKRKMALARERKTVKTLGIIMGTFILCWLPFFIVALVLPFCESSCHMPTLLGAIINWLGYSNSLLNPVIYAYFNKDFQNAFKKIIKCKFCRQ
Method: as §1, §2, §3

[1] = Lipophilicity, chromatographic hydrophobicity index on C18 (Valko protocol); type: physicochemical
Method: (§4) Lipophilicity and affinity for phospholipids for each investigated molecule were assessed. Additionally, selected compounds with the highest biological activities have been characterized by their affinity plasma proteins. All experiments were performed using protocols developed by Valko.[35] These methods facilitated the calculation of chromatographic hydrophobicity indices (CHI) and plasma protein binding percentages (%PPB) in a biochromatographic experiment, with results compared to the reference. A detailed description of the experiments is provided in the Supporting Information (SI), along with the raw data. […] Although high lipophilicity may limit the medical use of the analyzed compounds since they may tend to accumulate excessively in the human body, it is remarkable that several clinically used drugs also have high lipophilicity. […] (Table 5).
(§5) The detailed procedure is presented in previous publications.[53] High-performance liquid chromatography (HPLC) analyses were conducted using the Prominence-1 LC-2030C 3D system (Shimadzu) with a DAD detector, employing three different chromatographic columns with specific stationary phases and mobile phases. The analysis was performed at 30 °C with a flow rate of 1.5 mL/min for IAM and C18 columns, and 0.9 mL/min for the Chiralpak column. Calibration standards for the columns were sourced from various suppliers and dissolved in dimethyl sulfoxide. Detection occurred in the UV range (190–300 nm) with a 5 μL injection volume. Each compound was analyzed in triplicate. Retention times for the tested compounds and calibration standards are provided in the Supporting Information (Tables S1 and S2).

[2] = biological target: T3, human serum albumin (HSA) (Homo sapiens, UniProt P02768); test: HSA binding by biochromatography (HSA column); type: in vitro ADME; conditions: HSA column
T3 construct: purchased
T3 sequence (P02768 25-609): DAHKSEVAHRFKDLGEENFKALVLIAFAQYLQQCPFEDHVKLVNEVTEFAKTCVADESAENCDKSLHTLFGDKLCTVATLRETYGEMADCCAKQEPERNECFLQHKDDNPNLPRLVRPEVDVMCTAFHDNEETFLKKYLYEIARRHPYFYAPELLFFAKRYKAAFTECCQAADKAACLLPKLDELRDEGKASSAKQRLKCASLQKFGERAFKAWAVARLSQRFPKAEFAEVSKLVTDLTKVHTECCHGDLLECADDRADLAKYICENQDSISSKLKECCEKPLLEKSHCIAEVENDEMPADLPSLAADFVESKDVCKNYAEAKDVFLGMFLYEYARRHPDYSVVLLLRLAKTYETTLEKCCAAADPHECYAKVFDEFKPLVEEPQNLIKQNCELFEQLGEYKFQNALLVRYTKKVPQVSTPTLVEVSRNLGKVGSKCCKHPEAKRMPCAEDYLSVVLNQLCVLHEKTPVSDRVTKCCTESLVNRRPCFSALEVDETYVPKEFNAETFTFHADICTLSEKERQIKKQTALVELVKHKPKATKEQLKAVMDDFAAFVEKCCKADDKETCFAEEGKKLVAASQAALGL
Method: as §4, §5

[3] = Metabolic stability in mouse liver microsomes; type: in vitro ADME; conditions: MLMs; for main metabolic pathway / metabolic stability, % of remaining: 120 min
Text: Moving on to the next parameter, which is metabolism, we determined metabolic stability, using mouse liver microsomes (MLMs). […]
Main metabolic pathways are marked in red.

HepG2 hepatoma cells = test: Hepatotoxicity (MTS), HepG2; type: cell-based, human; conditions: 48 h; for hepatotoxic effect on HepG2: 1–10 μM; for HepG2 cell viability: 50 or 100 μM
Method: As a next step, we decided to investigate the potential toxicity of our lead compounds by assessing their toxic effects on the liver (in vitro), heart, and brain (in vivo). The safety profile was assessed through a hepatotoxicity assay using HepG2 hepatoma cells. (Figures 2E,F, 3E,F).

Danio rerio = conditions: in vivo
Method: Two compounds, PP 10 and PP 15, were tested for cardiotoxicity in the Danio rerio experimental model (OECD 236 test). […]. To assess potential neurotoxic effects, locomotor activity was examined in the Danio rerio model. Zebrafish larvae’s response to light and dark transitions serves as a useful method for detecting neurotoxicity. […] In our experiment, we switched from light to dark conditions, as zebrafish larvae are known to avoid light and seek darker areas. This behavior helps them evade predators and maintain ideal environmental conditions. […]
Figure 4 A: Toxicity of PP 10 and PP 15in vivo in the Danio reiro embryo toxicity test. […] Cardiotoxicity of compounds B: PP 10 and C: PP 15 was evaluated by measuring the heart rate (beats per minute) in 5-dpf Danio rerio larvae, maintained in the E3 fish embryo growth medium. Statistical analysis was performed using GraphPad Prism 10.0.0, with one-way ANOVA followed by Dunnett’s comparison test (*p < 0.05, compared to the negative control E3). […] | The toxicity of compounds was evaluated using two tests: the fish embryo toxicity (FET) test and neurotoxicity assessment.[53] […] Acute toxicity was assessed by monitoring signs such as coagulation of fertilized eggs, somite formation absence, tailbud separation, and lack of heartbeat. The LD50 value was calculated, and cardiovascular effects were monitored through heartbeat observations.

HSA and AGP (24:1) = test: TRANSILXL PPB plasma protein binding assay; conditions: human, TRANSILXL PPB assay, HSA and AGP in a ratio 24:1

Row | SMILES | Ki (D2) | Ki (5-HT1A) | CHI C18 pH 2.6 [1] | CHI C18 pH 7.4 [1] | CHI C18 pH 10.5 [1] | %HSA [2] | logKHSA [2] | main metabolic pathway [3] | metabolic stability, % of remaining [3] | number of potential metabolites identified [3] | hepatotoxic effect on HepG2 (HepG2 hepatoma cells) | HepG2 cell viability (HepG2 hepatoma cells) | cardiotoxic effects (heart rate) (Danio rerio) | fraction unbound (HSA and AGP (24:1)) | cytotoxic effect on HepG2 (HepG2 hepatoma cells; 10 μM)
1 | O=S(=O)(c1cccc2ccccc12)N1CCN(CCNC2=Nc3ccccc3CN2)CC1 [PP 6, N-{2-[4-(Naphthalene-1-sulfonyl)piperazin-1-yl]ethyl}-3,4-dihydroquinazolin-2-amine] | 7430 nM | 42 nM | 92.9 | 101.5 | 138.2 | 97.2% | 1.41 and 1.4 | double hydroxylation and double bond reduction | 72.76% |  |  |  |  |  | 
2 | CC1NC(NCCCCCCNS(=O)(=O)c2cccc3ccccc23)=Nc2ccccc21 (centres unmarked) [PP 10, N-{6-[(4-Methyl-3,4-dihydroquinazolin-2-yl)amino]hexyl}naphthalene-1-sulfonamide] | 2930 nM | 165 nM | 89.8 | 99.7 | 120.4 | 97.7% | 1.47 and 1.5 | double hydroxylation and double bond reduction or double hydroxylation and ring opening | 66.60% | 14 | no hepatotoxic effects | statistically significant decrease in cell viability | Neither compound displayed cardiotoxic effects | 0.003 | 
3 | CC1NC(NCCCCCCNS(=O)(=O)c2c(Cl)ccc3ccccc23)=Nc2ccccc21 (centres unmarked) [PP 13, 2-Chloro-N-{6-[(4-methyl-3,4-dihydroquinazolin-2-yl)amino]hexyl}naphthalene-1-sulfonamide] | 1900 nM | 19 nM | 115.8 | 105.7 | 128.8 | >99.8% |  | ring opening and triple hydroxylation | 52.60% | 11 | no hepatotoxic effects | statistically significant decrease in cell viability |  | 0.001 ± 3e-07 | 
4 | O=S(=O)(NCCCCCCNc1ncc2ccccc2n1)c1cccc2ccccc12 [PP 15, N-{6-[(Quinazolin-2-yl)amino]hexyl}naphthalene-1-sulfonamide] | 71800 nM | 7160 nM | 99 | 104.4 | 107.2 | 97.8% | 1.48 and 1.5 | hydroxylation | 48.07% |  | no hepatotoxic effects | statistically significant decrease in cell viability | Neither compound displayed cardiotoxic effects |  | 
5 | O=S1(=O)c2cccc3cccc(c23)N1CCCCCCNC1=Nc2ccccc2CN1 [PP 24, 3-{6-[(3,4-Dihydroquinazolin-2-yl)amino]hexyl}-2λ^6-thia-3-azatricyclo[6.3.1.0^4,^12]dodeca-1(11),4(12),5,7,9-pentaene-2,2-dione] |  |  | 84.7 | 103.2 | 127 | 98.8% | 1.65 and 1.6 | hydroxylation | 93.13% |  |  |  |  | 0.004 | strong cytotoxic effect
